Measured values reported in PubChem BioAssay AID1259411 (Chemical Carcinogenesis Research Information System (CCRIS), 2018).
Calls of active or inactive are those of the source. No rule for the calls is given here.

Test system: rodent carcinogenicity bioassays, tumor incidence
Experiment: CCRIS carcinogenicity studies
Method in brief: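 NCI-built, expert-reviewed records of carcinogenicity and related test outcomes (mutagenicity, tumor promotion/inhibition) compiled from published and report sources, historical span 1985-2011, not updated.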

**Q.** Which carcinogen call (Species: MOUSE, Strain/Sex: B6C3F1/FEMALE, Route: GAVAGE, Dose: 0, 100, 200 MG/KG IN CORN OIL FOR 103 WK, Dose: 0, 100, 200 MG/KG IN CORN OIL FOR 103 WK, Tumor Site: Type of Lesion: FORESTOMACH: SQUAMOUS CELL PAPILLOMA OR CARCINOMA) does the source give for `C=CC(=O)OCC` here?
**A.** Its carcinogen call is “active; positive”.

**Q.** What about the carcinogen call (Species: MOUSE, Strain/Sex: B6C3F1/FEMALE, Route: INHALATION, Dose: 0, 5 PPM 6 HR/D 5 D/WK FOR 24 MO (STUDY DURATION: 24 MO)) of the same compound?
**A.** The carcinogen call was “inactive; negative”.

**Q.** What about the carcinogen call (Species: MOUSE, Strain/Sex: B6C3F1/FEMALE, Route: INHALATION, Dose: 0, 25, 75 PPM 6 HR/D 5 D/WK FOR 27 MO (STUDY DURATION: 27 MO), Dose: 0, 25, 75 PPM 6 HR/D 5 D/WK FOR 27 MO (STUDY DURATION: 27 MO)) of the same compound?
**A.** Its carcinogen call is “inactive; negative”.

**Q.** And the carcinogen call (Species: MOUSE, Strain/Sex: B6C3F1/FEMALE, Route: INHALATION, Dose: 0, 225 PPM 6 HR/D 5 D/WK FOR 6 MO (STUDY DURATION: 27 MO))?
**A.** Its carcinogen call is “inactive; negative”.

**Q.** What about the carcinogen call (Species: MOUSE, Strain/Sex: B6C3F1/MALE, Route: GAVAGE, Dose: 0, 100, 200 MG/KG IN CORN OIL FOR 103 WK, Dose: 0, 100, 200 MG/KG IN CORN OIL FOR 103 WK, Tumor Site: Type of Lesion: FORESTOMACH: SQUAMOUS CELL PAPILLOMA, SQUAMOUS CELL CARCINOMA) of the same compound?
**A.** Its carcinogen call is “active; positive”.

**Q.** And the carcinogen call (Species: MOUSE, Strain/Sex: B6C3F1/MALE, Route: INHALATION, Dose: 0, 5 PPM 6 HR/D 5 D/WK FOR 24 MO (STUDY DURATION: 24 MO))?
**A.** The carcinogen call was “inactive; negative”.

**Q.** What about the carcinogen call (Species: MOUSE, Strain/Sex: B6C3F1/MALE, Route: INHALATION, Dose: 0, 25, 75 PPM 6 HR/D 5 D/WK FOR 27 MO (STUDY DURATION: 27 MO), Dose: 0, 25, 75 PPM 6 HR/D 5 D/WK FOR 27 MO (STUDY DURATION: 27 MO)) of the same compound?
**A.** Its carcinogen call is “inactive; negative”.

**Q.** And the carcinogen call (Species: MOUSE, Strain/Sex: B6C3F1/MALE, Route: INHALATION, Dose: 0, 225 PPM 6 HR/D 5 D/WK FOR 6 MO (STUDY DURATION: 27 MO))?
**A.** Its carcinogen call is “inactive; negative”.

**Q.** And the carcinogen call (Species: MOUSE, Strain/Sex: C3H/MALE, Route: DERMAL, Dose: 0, 23 MG IN 25 µL ACETONE 3/WK FOR LIFESPAN (STUDY DURATION: LIFESPAN))?
**A.** Its carcinogen call is “inactive; negative”.

**Q.** And the carcinogen call (Species: MOUSE, Strain/Sex: TGAC/FEMALE, Route: DERMAL, Dose: 0, 60, 300, 600 UMOL IN 200 µL ACETONE 3/WK FOR 20 WK (STUDY DURATION: 20 WK), Dose: 0, 60, 300, 600 UMOL IN 200 µL ACETONE 3/WK FOR 20 WK (STUDY DURATION: 20 WK))?
**A.** Its carcinogen call is “inactive; negative”.

**Q.** What about the carcinogen call (Species: RAT, Strain/Sex: F344/FEMALE, Route: GAVAGE, Dose: 0, 100, 200 MG/KG IN CORN OIL FOR 103 WK, Dose: 0, 100, 200 MG/KG IN CORN OIL FOR 103 WK, Tumor Site: Type of Lesion: FORESTOMACH: SQUAMOUS CELL PAPILLOMA, SQUAMOUS CELL PAPILLOMA OR CARCINOMA) of the same compound?
**A.** The carcinogen call was “active; positive”.

**Q.** What about the carcinogen call (Species: RAT, Strain/Sex: F344/FEMALE, Route: INHALATION, Dose: 0, 5 PPM 6 HR/D 5 D/WK FOR 24 MO (STUDY DURATION: 24 MO)) of the same compound?
**A.** The carcinogen call was “inactive; negative”.

**Q.** And the carcinogen call (Species: RAT, Strain/Sex: F344/FEMALE, Route: INHALATION, Dose: 0, 25, 75 PPM 6 HR/D 5 D/WK FOR 27 MO (STUDY DURATION: 27 MO), Dose: 0, 25, 75 PPM 6 HR/D 5 D/WK FOR 27 MO (STUDY DURATION: 27 MO))?
**A.** The carcinogen call was “inactive; negative”.

**Q.** And the carcinogen call (Species: RAT, Strain/Sex: F344/FEMALE, Route: INHALATION, Dose: 0, 225 PPM 6 HR/D 5 D/WK FOR 6 MO (STUDY DURATION: 27 MO))?
**A.** Its carcinogen call is “inactive; negative”.

**Q.** What about the carcinogen call (Species: RAT, Strain/Sex: F344/MALE, Route: GAVAGE, Dose: 0, 100, 200 MG/KG IN CORN OIL FOR 103 WK, Dose: 0, 100, 200 MG/KG IN CORN OIL FOR 103 WK, Tumor Site: Type of Lesion: FORESTOMACH: SQUAMOUS CELL PAPILLOMA, SQUAMOUS CELL CARCINOMA) of the same compound?
**A.** Its carcinogen call is “active; positive”.

**Q.** And the carcinogen call (Species: RAT, Strain/Sex: F344/MALE, Route: INHALATION, Dose: 0, 5 PPM 6 HR/D 5 D/WK FOR 24 MO (STUDY DURATION: 24 MO))?
**A.** Its carcinogen call is “inactive; negative”.

**Q.** What about the carcinogen call (Species: RAT, Strain/Sex: F344/MALE, Route: INHALATION, Dose: 0, 25, 75 PPM 6 HR/D 5 D/WK FOR 27 MO (STUDY DURATION: 27 MO), Dose: 0, 25, 75 PPM 6 HR/D 5 D/WK FOR 27 MO (STUDY DURATION: 27 MO)) of the same compound?
**A.** Its carcinogen call is “inactive; negative”.

**Q.** And the carcinogen call (Species: RAT, Strain/Sex: F344/MALE, Route: INHALATION, Dose: 0, 225 PPM 6 HR/D 5 D/WK FOR 6 MO (STUDY DURATION: 27 MO))?
**A.** Its carcinogen call is “inactive; negative”.

**Q.** `FC(Cl)C(F)(F)F` (stereo not given) was tested. Which carcinogen call (Species: RAT, Strain/Sex: CRL:CD/FEMALE, Route: INHALATION, Dose: 0, 2000, 10,000, 50,000 PPM 6 HR/D 5 D/WK FOR 2 YR (STUDY DURATION: 2 YR), Dose: 0, 2000, 10,000, 50,000 PPM 6 HR/D 5 D/WK FOR 2 YR (STUDY DURATION: 2 YR)) did it give?
**A.** The carcinogen call was “inactive; negative”.

**Q.** What about the carcinogen call (Species: RAT, Strain/Sex: CRL:CD/MALE, Route: INHALATION, Dose: 0, 2000, 10,000, 50,000 PPM 6 HR/D 5 D/WK FOR 2 YR (STUDY DURATION: 2 YR), Dose: 0, 2000, 10,000, 50,000 PPM 6 HR/D 5 D/WK FOR 2 YR (STUDY DURATION: 2 YR)) of the same compound?
**A.** Its carcinogen call is “inactive; negative”.

**Q.** For `Cc1cc(Cc2ccc(N)c(C)c2)ccc1N`, which carcinogen call (Species: RAT, Route: ORAL, Tumor Site: Type of Lesion: LIVER) is on record?
**A.** Its carcinogen call is “active; positive”.

**Q.** `C#C[C@]1(O)CC[C@H]2[C@@H]3CCc4cc(O)ccc4[C@H]3[C@@H](OC)C[C@@]21C` was tested. Which carcinogen call (Species: HAMSTER, Strain/Sex: SYRIAN/MALE, Route: SUBCUTANEOUS IMPLANT, Dose: 0, 20 MG IN PELLETS IMPLANTED EVERY 2.5 MO FOR 9 MO (STUDY DURATION: 9 MO), Tumor Site: Type of Lesion: KIDNEY: TUMOR) did it give?
**A.** The carcinogen call was “active; positive”.

**Q.** Which results are given for `COC(=O)Nc1nc2ccccc2[nH]1`?
**A.** carcinogen call (Species: Mouse, Strain/Sex: CD-1/Female (80/sex/dose), Route: Oral, Dose: 0, 500, 1500, 7500 ppm in feed for 2 yr, Dose: 0, 500, 1500, 7500 ppm in feed for 2 yr, Tumor Site: Type of Lesion: Liver: Hepatocellular adenoma (0/68, 5/62, 5/66, 3/71), Hepatocellular carcinoma (2/68, 4/62, 15/66, 12/71), Combined (2, Tumor Site: Type of Lesion: Liver: Hepatocellular adenoma (0/68, 5/62, 5/66, 3/71), Hepatocellular carcinoma (2/68, 4/62, 15/66, 12/71), Combined (2): active; positive: purity 99.3%; carcinogen call (Species: Mouse, Strain/Sex: CD-1/Male (80/sex/dose); Route: Oral; Dose: 0; 500; 1500; 7500 ppm in feed for 2 yr except for highest dose where animals terminated at week 73 with 29% survival); Dose: 0; 500; 1500; 7500 ppm in feed for 2 yr except for highest dose where animals terminated at week 73 with 29% survival)): inactive; negative: purity 99.3%

**Q.** With `Cc1cccc(C)c1N` as the compound, how does the carcinogen call (Species: RAT, Strain/Sex: CD/FEMALE, Route: ORAL, Dose: 0, 300, 1000, 3000 PPM IN FEED FOR 102 WK (STUDY DURATION: 104 WK), Dose: 0, 300, 1000, 3000 PPM IN FEED FOR 102 WK (STUDY DURATION: 104 WK), Tumor Site: Type of Lesion: SUBCUTANEOUS TISSUE: FIBROMA, FIBROMA OR FIBROSARCOMA, NASAL CAVITY: PAPILLARY ADENOMA, ADENOMA OR PAPILLARY ADENOMA, CA) read?
**A.** Its carcinogen call is “active; positive”.

**Q.** And the carcinogen call (Species: RAT, Strain/Sex: CD/MALE, Route: ORAL, Dose: 0, 300, 1000, 3000 PPM IN FEED FOR 102 WK (STUDY DURATION: 104 WK), Dose: 0, 300, 1000, 3000 PPM IN FEED FOR 102 WK (STUDY DURATION: 104 WK), Tumor Site: Type of Lesion: SUBCUTANEOUS TISSUE: FIBROMA, FIBROMA OR NEUROFIBROMA, FIBROMA OR FIBROSARCOMA, NASAL CAVITY: PAPILLARY ADENOMA, CARCINO)?
**A.** Its carcinogen call is “active; positive”.

**Q.** For `CC1=CC(C)(C)Nc2ccccc21`, which carcinogen call (Species: MOUSE, Strain/Sex: B6C3F1/FEMALE, Route: DERMAL, Dose: 0, 3.6, 6, 10 MG/KG BW IN ACETONE 5 D/WK FOR 103 WK (STUDY DURATION: 103 WK), Dose: 0, 3.6, 6, 10 MG/KG BW IN ACETONE 5 D/WK FOR 103 WK (STUDY DURATION: 103 WK)) is on record?
**A.** Its carcinogen call is “inactive; negative”.

**Q.** And the carcinogen call (Species: MOUSE, Strain/Sex: B6C3F1/MALE, Route: DERMAL, Dose: 0, 3.6, 6, 10 MG/KG BW IN ACETONE 5 D/WK FOR 103 WK (STUDY DURATION: 103 WK), Dose: 0, 3.6, 6, 10 MG/KG BW IN ACETONE 5 D/WK FOR 103 WK (STUDY DURATION: 103 WK))?
**A.** The carcinogen call was “inactive; negative”.

**Q.** What about the carcinogen call (Species: RAT, Strain/Sex: F344/FEMALE, Route: DERMAL, Dose: 0, 36, 60, 100 MG/KG BW IN ACETONE 5 D/WK FOR 104 WK (STUDY DURATION: 106 WK), Dose: 0, 36, 60, 100 MG/KG BW IN ACETONE 5 D/WK FOR 104 WK (STUDY DURATION: 106 WK)) of the same compound?
**A.** The carcinogen call was “inactive; negative”.

**Q.** What about the carcinogen call (Species: RAT, Strain/Sex: F344/MALE, Route: DERMAL, Dose: 0, 36, 60, 100 MG/KG BW IN ACETONE 5 D/WK FOR 103 WK (STUDY DURATION: 105 WK), Dose: 0, 36, 60, 100 MG/KG BW IN ACETONE 5 D/WK FOR 103 WK (STUDY DURATION: 105 WK), Tumor Site: Type of Lesion: KIDNEY(RENAL TUBULE): ADENOMA OR CARCINOMA) of the same compound?
**A.** Its carcinogen call is “active; positive”.
